Experimental data published in patent US20250073234A1, “COMBINATION THERAPIES INCLUDING PARP1 INHIBITORS” (Cornell University, priority 2022, published 2025).

Experiments:
[1] = system: c-FOS and c-JUN at the AP-1A site of the SQSTM1 promoter; assay: ChIP-PCR of SQSTM1 promoter (AP-1A) occupancy in WPMY-1 cells; format: cell-based, human; details: 48 h
Procedure: WPMY-1 cells were fixed by adding directly to the culture medium formaldehyde (HCHO; from a 37% HCHO-10% methanol stock, Calbiochem) to a final concentration of 1%. […] Chromatin was sheared in a COVARIS S220 Focused-ultrasonicator to yield DNA fragment sizes of 200-1000 base pairs, and diluted 10 times in dilution buffer (20 mM Tris pH 8.0, 2 mM EDTA, 1% triton X-100, 150 mM NaCl and protease inhibitors). Immunoprecipitations were carried out overnight at 4° C. using the following protein A-antibodies complexes: cFOS, FOSB, cJUN, JUNB.
Immunocomplexes were washed three times with buffer TSEI (20 mM Tris pH 8.0, 2 mM EDTA, 1% triton X-100, 150 mM NaCl, 0.1% SDS and protease inhibitors), three washes with buffer TSEII (20 mM Tris pH 8.0, 2 mM EDTA, 1% triton X-100, 500 mM NaCl, 0.1% SDS and protease inhibitors), one wash with buffer TSEIII (10 mM Tris pH 8.0, 250 mM LiCl, 1 mM EDTA, 1% NP40, 1% Deoxycholate and protease inhibitors) and one wash with TE pH 8.0.
Immunocomplexes were extracted in TE containing 1% SDS, and protein-DNA cross-links were reverted by heating at 65° C. overnight. DNA was extracted by using a PCR purification kit (Qiagen). One-tenth of the immunoprecipitated DNA was used in each PCR, for which the promoter-specific primers were used.

[2] = system: bone marrow stromal cells; assay: qPCR in mouse bone marrow stromal cells; format: cell-based
Procedure: Total RNA from mouse tissues, cells and cultured organoids was extracted using the TRIZOL reagent (Invitrogen) and the RNeasy Mini Kit (QIAGEN), followed by DNase treatment. After quantification using a Nanodrop 1000 spectrophotometer (Thermo Scientific), RNA was either processed for RNA-seq or reverse-transcribed using random primers and MultiScribe Reverse Transcriptase (Applied Biosystems). Gene expression was analyzed by amplifying 20 ng of the complementary DNA using the CFX96 Real Time PCR Detection System with SYBR Green Master Mix (BioRad) and primers described in Table S1. The amplification parameters were set at 95° C. for 30 seconds, 58° C. for 30 seconds, and 72° C. for 30 seconds (40 cycles total). Gene expression values for each sample were normalized to the 18s RNA.

RM1-BoMe3 metastases = assay: Caudal artery injection RM1-BoMe3 metastasis model; format: in vivo, mouse; details: Olaparib 40 mg/kg i.p., 3 weeks
Procedure: Tissues from indicated mice were isolated, fixed in zinc buffered formalin overnight at 4° C., dehydrated, and embedded in paraffin. Sections (5 μm) were stained with hematoxylin and eosin (H&E). For immunohistochemistry, sections were deparaffinized, rehydrated, and then treated for antigen retrieval. After blocking in Protein Block Serum-Free solutions (DAKO), tissues were incubated with primary antibody overnight at 4° C. followed by incubation with biotinylated secondary antibody. Endogenous peroxidase was quenched in 3% H2O2 in water for 10 minutes at room temperature. Antibodies were visualized with avidin-biotin complex (Vectastain Elite; Vector Laboratories) using diaminobenzidine as the chromogen. Stained sections were analyzed with a Zeiss light microscope supplemented with Zen 3.3 Bule edition software.
For the metastasis model, caudal artery injection was performed with 500000 RM1-BoMe3-RFP-Luc prostate cancer epithelial cells in 150 μl of PBS n=10 in 8-week-old C57B16 male mice. After 1-week luciferase was visualized using IVIS to detect signal in the lower limbs and in less frequently in visceral organs, mice with signal were randomly distributed to receive vehicle, n=5, or Olaparib n=5 (40 mg/kg/, 5 days each, i.p.). After 3 weeks, mice were euthanized and ex-vivo IVIS was performed in lower limbs, vertebrae, and visceral organs to detect metastasis sites. Tissues were collected and analyzed histologically.

NC(=O)c1ccc[n+]([C@@H]2O[C@H](COP(=O)([O-])OP(=O)(O)OC[C@H]3O[C@@H](n4cnc5c(N)ncnc54)[C@H](O)[C@@H]3O)[C@@H](O)[C@H]2O)c1 [NAD^+]
recruitment of c-FOS and c-JUN to the AP-1 regulatory site in lactate-treated cells ([1]; added to lactate-treated WPMY-1 cells): rescued

O=C(c1cc(Cc2n[nH]c(=O)c3ccccc23)ccc1F)N1CCN(C(=O)C2CC2)CC1 [Olaparib]
recruitment of c-FOS and c-JUN to the AP-1A binding site in the SQSTM1 promoter ([1]; Olaparib 20 μM): impaired the recruitment of c-FOS and c-JUN
markers of stromal activation (Acta2, Has2) ([2]; cells isolated from in vivo treated mice, 40 mg/kg): enhanced expression of markers of stromal activation
markers of TGFβ family (Tgfb3, Tgfb2) and Has3 ([2]; in vitro, Olaparib 10 μM, 96 h): increased expression of markers of TGFβ family
HA deposition in liver metastasis (IHC) (RM1-BoMe3 metastases): increased HA deposition in Olaparib-treated liver metastasis
TGFβ signaling in bone metastasis (nuclear pSMAD2) (RM1-BoMe3 metastases): increased pSMAD2 staining in bone metastasis
HA deposition in liver metastasis (IHC) (RM1-BoMe3 metastases; listed as Ola): deposition of HA was observed
TGFβ signaling in bone metastasis (nuclear pSMAD2) (RM1-BoMe3 metastases; listed as Ola): increased activation of TGFβ signaling
